± gives the expanded uncertainty stated by the source.
Assay: xn = mol fraction of the nth substance listed
Conditions: Liquid, Vibrating tube method

COC(=O)OC [dimethyl carbonate] + CCCO
Conditions	mass density [kg/m3]
298.15 K, 20000 kPa, x1 = 0.5498	965.01 ± 1.5
298.15 K, 20000 kPa, x1 = 0.5996	978.09 ± 1.5
298.15 K, 20000 kPa, x1 = 0.6499	991.19 ± 1.5
298.15 K, 20000 kPa, x1 = 0.7006	1004.45 ± 1.5
298.15 K, 20000 kPa, x1 = 0.7471	1016.43 ± 1.5
298.15 K, 20000 kPa, x1 = 0.7989	1029.72 ± 1.5
298.15 K, 20000 kPa, x1 = 0.8491	1042.57 ± 1.5
298.15 K, 20000 kPa, x1 = 0.8993	1055.43 ± 1.6
298.15 K, 20000 kPa, x1 = 0.9249	1061.94 ± 1.6
298.15 K, 20000 kPa, x1 = 0.9489	1067.96 ± 1.6
298.15 K, 20000 kPa, x1 = 0.9743	1074.33 ± 1.6
298.15 K, 20000 kPa, x1 = 1	1080.9 ± 0.6
298.15 K, 25000 kPa, x1 = 0.0273	824.63 ± 1.4
298.15 K, 25000 kPa, x1 = 0.0506	831.37 ± 1.4
298.15 K, 25000 kPa, x1 = 0.0755	838.51 ± 1.4
298.15 K, 25000 kPa, x1 = 0.1007	845.6 ± 1.4
298.15 K, 25000 kPa, x1 = 0.1495	859.5 ± 1.4
298.15 K, 25000 kPa, x1 = 0.2003	873.75 ± 1.4
298.15 K, 25000 kPa, x1 = 0.2529	888.37 ± 1.4
298.15 K, 25000 kPa, x1 = 0.2993	901.23 ± 1.4
298.15 K, 25000 kPa, x1 = 0.3497	915.04 ± 1.4
298.15 K, 25000 kPa, x1 = 0.401	928.97 ± 1.4
298.15 K, 25000 kPa, x1 = 0.4509	942.42 ± 1.5
298.15 K, 25000 kPa, x1 = 0.5002	955.58 ± 1.5
298.15 K, 25000 kPa, x1 = 0.5498	968.71 ± 1.5
298.15 K, 25000 kPa, x1 = 0.5996	981.85 ± 1.5
298.15 K, 25000 kPa, x1 = 0.6499	995.01 ± 1.5
298.15 K, 25000 kPa, x1 = 0.7006	1008.28 ± 1.5
298.15 K, 25000 kPa, x1 = 0.7471	1020.32 ± 1.5
298.15 K, 25000 kPa, x1 = 0.7989	1033.62 ± 1.5
298.15 K, 25000 kPa, x1 = 0.8491	1046.53 ± 1.5
298.15 K, 25000 kPa, x1 = 0.8993	1059.4 ± 1.6
298.15 K, 25000 kPa, x1 = 0.9249	1065.92 ± 1.6
298.15 K, 25000 kPa, x1 = 0.9489	1071.94 ± 1.6
298.15 K, 25000 kPa, x1 = 0.9743	1078.36 ± 1.6
298.15 K, 25000 kPa, x1 = 1	1084.89 ± 0.61
298.15 K, 30000 kPa, x1 = 0.0273	827.8 ± 1.4
298.15 K, 30000 kPa, x1 = 0.0506	834.55 ± 1.4
298.15 K, 30000 kPa, x1 = 0.0755	841.73 ± 1.4
298.15 K, 30000 kPa, x1 = 0.1007	848.88 ± 1.4
298.15 K, 30000 kPa, x1 = 0.1495	862.83 ± 1.4
298.15 K, 30000 kPa, x1 = 0.2003	877.1 ± 1.4
298.15 K, 30000 kPa, x1 = 0.2529	891.77 ± 1.4
298.15 K, 30000 kPa, x1 = 0.2993	904.69 ± 1.4
298.15 K, 30000 kPa, x1 = 0.3497	918.51 ± 1.4
298.15 K, 30000 kPa, x1 = 0.401	932.5 ± 1.5
298.15 K, 30000 kPa, x1 = 0.4509	946 ± 1.5
298.15 K, 30000 kPa, x1 = 0.5002	959.23 ± 1.5
298.15 K, 30000 kPa, x1 = 0.5498	972.41 ± 1.5
298.15 K, 30000 kPa, x1 = 0.5996	985.57 ± 1.5
298.15 K, 30000 kPa, x1 = 0.6499	998.78 ± 1.5
298.15 K, 30000 kPa, x1 = 0.7006	1012.06 ± 1.5
298.15 K, 30000 kPa, x1 = 0.7471	1024.11 ± 1.5
298.15 K, 30000 kPa, x1 = 0.7989	1037.46 ± 1.5
298.15 K, 30000 kPa, x1 = 0.8491	1050.43 ± 1.5
298.15 K, 30000 kPa, x1 = 0.8993	1063.31 ± 1.6
298.15 K, 30000 kPa, x1 = 0.9249	1069.84 ± 1.6
298.15 K, 30000 kPa, x1 = 0.9489	1075.86 ± 1.6
298.15 K, 30000 kPa, x1 = 0.9743	1082.29 ± 1.6
298.15 K, 30000 kPa, x1 = 1	1088.82 ± 0.62
298.15 K, 35000 kPa, x1 = 0.0273	830.69 ± 1.4
298.15 K, 35000 kPa, x1 = 0.0506	837.44 ± 1.4
298.15 K, 35000 kPa, x1 = 0.0755	844.68 ± 1.4
298.15 K, 35000 kPa, x1 = 0.1007	851.87 ± 1.4
298.15 K, 35000 kPa, x1 = 0.1495	865.84 ± 1.4
298.15 K, 35000 kPa, x1 = 0.2003	880.17 ± 1.4
298.15 K, 35000 kPa, x1 = 0.2529	894.9 ± 1.4
298.15 K, 35000 kPa, x1 = 0.2993	907.88 ± 1.4
298.15 K, 35000 kPa, x1 = 0.3497	921.76 ± 1.4
298.15 K, 35000 kPa, x1 = 0.401	935.75 ± 1.5
298.15 K, 35000 kPa, x1 = 0.4509	949.32 ± 1.5
298.15 K, 35000 kPa, x1 = 0.5002	962.55 ± 1.5
298.15 K, 35000 kPa, x1 = 0.5498	975.8 ± 1.5
298.15 K, 35000 kPa, x1 = 0.5996	988.96 ± 1.5
298.15 K, 35000 kPa, x1 = 0.6499	1002.23 ± 1.5
298.15 K, 35000 kPa, x1 = 0.7006	1015.57 ± 1.5
298.15 K, 35000 kPa, x1 = 0.7471	1027.63 ± 1.5
298.15 K, 35000 kPa, x1 = 0.7989	1041.04 ± 1.5
298.15 K, 35000 kPa, x1 = 0.8491	1054.02 ± 1.6
298.15 K, 35000 kPa, x1 = 0.8993	1066.92 ± 1.6
298.15 K, 35000 kPa, x1 = 0.9249	1073.44 ± 1.6
298.15 K, 35000 kPa, x1 = 0.9489	1079.52 ± 1.6
298.15 K, 35000 kPa, x1 = 0.9743	1085.95 ± 1.6
298.15 K, 35000 kPa, x1 = 1	1092.44 ± 0.64
298.15 K, 40000 kPa, x1 = 0.0273	833.7 ± 1.4
298.15 K, 40000 kPa, x1 = 0.0506	840.46 ± 1.4
298.15 K, 40000 kPa, x1 = 0.0755	847.74 ± 1.4
298.15 K, 40000 kPa, x1 = 0.1007	854.94 ± 1.4
298.15 K, 40000 kPa, x1 = 0.1495	868.95 ± 1.4
298.15 K, 40000 kPa, x1 = 0.2003	883.35 ± 1.4
298.15 K, 40000 kPa, x1 = 0.2529	898.11 ± 1.4
298.15 K, 40000 kPa, x1 = 0.2993	911.12 ± 1.4
298.15 K, 40000 kPa, x1 = 0.3497	925.01 ± 1.5
298.15 K, 40000 kPa, x1 = 0.401	939.03 ± 1.5
298.15 K, 40000 kPa, x1 = 0.4509	952.62 ± 1.5
298.15 K, 40000 kPa, x1 = 0.5002	965.93 ± 1.5
298.15 K, 40000 kPa, x1 = 0.5498	979.21 ± 1.5
298.15 K, 40000 kPa, x1 = 0.5996	992.41 ± 1.5
298.15 K, 40000 kPa, x1 = 0.6499	1005.7 ± 1.5
298.15 K, 40000 kPa, x1 = 0.7006	1019.07 ± 1.5
298.15 K, 40000 kPa, x1 = 0.7471	1031.19 ± 1.5
298.15 K, 40000 kPa, x1 = 0.7989	1044.59 ± 1.5
298.15 K, 40000 kPa, x1 = 0.8491	1057.6 ± 1.6
298.15 K, 40000 kPa, x1 = 0.8993	1070.52 ± 1.6
298.15 K, 40000 kPa, x1 = 0.9249	1077.05 ± 1.6
298.15 K, 40000 kPa, x1 = 0.9489	1083.13 ± 1.6
298.15 K, 40000 kPa, x1 = 0.9743	1089.6 ± 1.6
298.15 K, 40000 kPa, x1 = 1	1096.04 ± 0.65
303.15 K, 100 kPa, x1 = 0.0273	802.96 ± 1.4
303.15 K, 100 kPa, x1 = 0.0506	809.34 ± 1.4
303.15 K, 100 kPa, x1 = 0.0755	816.25 ± 1.4
303.15 K, 100 kPa, x1 = 0.1007	823.16 ± 1.4
303.15 K, 100 kPa, x1 = 0.1495	836.62 ± 1.4
303.15 K, 100 kPa, x1 = 0.2003	850.48 ± 1.4
303.15 K, 100 kPa, x1 = 0.2529	864.74 ± 1.4
303.15 K, 100 kPa, x1 = 0.2993	877.26 ± 1.4
303.15 K, 100 kPa, x1 = 0.3497	890.62 ± 1.4
303.15 K, 100 kPa, x1 = 0.401	904.1 ± 1.4
303.15 K, 100 kPa, x1 = 0.4509	917.2 ± 1.4
303.15 K, 100 kPa, x1 = 0.5002	930.06 ± 1.4
303.15 K, 100 kPa, x1 = 0.5498	942.89 ± 1.5
303.15 K, 100 kPa, x1 = 0.5996	955.69 ± 1.5
303.15 K, 100 kPa, x1 = 0.6499	968.54 ± 1.5
303.15 K, 100 kPa, x1 = 0.7006	981.46 ± 1.5
303.15 K, 100 kPa, x1 = 0.7471	993.16 ± 1.5
303.15 K, 100 kPa, x1 = 0.7989	1006.2 ± 1.5
303.15 K, 100 kPa, x1 = 0.8491	1018.81 ± 1.5
303.15 K, 100 kPa, x1 = 0.8993	1031.43 ± 1.5
303.15 K, 100 kPa, x1 = 0.9249	1037.82 ± 1.5
303.15 K, 100 kPa, x1 = 0.9489	1043.76 ± 1.5
303.15 K, 100 kPa, x1 = 0.9743	1050.11 ± 1.5
303.15 K, 100 kPa, x1 = 1	1056.61 ± 0.56
303.15 K, 5000 kPa, x1 = 0.0273	806.96 ± 1.4
303.15 K, 5000 kPa, x1 = 0.0506	813.38 ± 1.4
303.15 K, 5000 kPa, x1 = 0.0755	820.3 ± 1.4

Reference: the NIST ThermoML archive (doi:10.1016/j.jct.2019.02.011)
